From patent US9187487B2, “Azaindole derivatives as tyrosine kinase inhibitors” (PRINCIPIA BIOPHARMA, INC., priority 2011, dated 2015) come the findings set out here.

Each structure is given as a SMILES string.

The assay has as its target recombinant JAK3 (catalytic domain, aa 781-1124) (Homo sapiens (Human), UniProt P52333). As to the kind of experiment: JAK3 Caliper Peptide Phosphorylation Assay. As to conditions: fluorescently labeled Srctide substrate 1 uM; ATP at 1×Km (2 uM); 2 hours at 25° C. The format is biochemical. As to the method: JAK3 Caliper Peptide Phosphorylation Assay
Phosphorylation of the appropriate peptide substrate (fluorescently labeled Srctide) by recombinant JAK3 (catalytic domain, aa 781-1124) was measured in the presence and absence of different concentrations of test compounds. Test compound, enzyme, fluorescently labeled substrate, and cofactors (ATP and Mg^2+) were combined in a well of a microtiter plate and incubated for 2 hours at 25° C. The composition of the reaction buffer was 100 mM HEPES pH 7.5, 5 mM MgCl2, 0.01% Triton-X 100, 0.1% Bovine Serum Albumin, and 1% DMSO. Enzyme concentration in the final reaction mixture was 0.5 nM while peptide substrate was at 1 uM. ATP was used at 1×Km concentration corresponding to 2 uM. Serial dilutions (3-fold steps) of compounds were prepared in DMSO. At the end of the incubation, the reaction was stopped by the addition of 20 mM EDTA. Substrate and product (i.e. phosphorylated substrate) were separated electrophoretically and both were quantified by fluorescence intensity using the microfluidics-based LabChip 3000 Drug Discovery System from Caliper Life Sciences. Conversion for each well was calculated and plotted as function of test compound concentration. IC50 value was determined by fitting the data to a 4-parameter logistic model by non-linear regression (XLfit model 205). In every assay, Staurosporine was tested in the same manner as reference compound. Selectivity for JAK3 was determined using commercially available kinase cross-screening services (DiscoveRx, San Diego, Calif.).

Sequence of recombinant JAK3 (catalytic domain, aa 781-1124) (P52333 781-1124): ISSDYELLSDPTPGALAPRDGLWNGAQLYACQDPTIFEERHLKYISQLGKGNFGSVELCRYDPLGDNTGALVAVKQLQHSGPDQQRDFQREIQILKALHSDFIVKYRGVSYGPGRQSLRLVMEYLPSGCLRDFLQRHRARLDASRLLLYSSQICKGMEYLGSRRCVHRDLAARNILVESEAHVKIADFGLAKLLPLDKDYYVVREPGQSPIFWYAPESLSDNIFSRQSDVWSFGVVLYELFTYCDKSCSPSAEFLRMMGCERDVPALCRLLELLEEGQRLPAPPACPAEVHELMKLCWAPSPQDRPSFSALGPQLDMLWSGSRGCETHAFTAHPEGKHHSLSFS

As usually defined, the IC50 is the concentration at which inhibition is half-maximal. Turning to `CN(C)C(=O)C(C#N)=Cc1cccc(-c2ncnc3[nH]ccc23)c1` [compound 1, 3-(3-(7H-pyrrolo[2,3-d]pyrimidin-4-yl)phenyl)-2-cyano-N,N-dimethylacrylamide], the IC50 was determined as 305 nM.
As to `CN(C)C(=O)C(C#N)=Cc1cccc(Nc2ncnc3[nH]ccc23)c1` [compound 3, 3-(3-((7H-pyrrolo[2,3-d]pyrimidin-4-yl)amino)-phenyl)-2-cyano-N,N-dimethylacrylamide], the IC50 worked out at 150 nM.
Next, `CN(C)C(=O)C(C#N)=Cc1cccc(N(C)c2ncnc3[nH]ccc23)c1` [compound 4, 2-cyano-N,N-dimethyl-3-(3-(methyl(7H-pyrrolo[2,3-d]pyrimidin-4-yl)amino)phenyl)acrylamide]: above 1000 nM.
Next, `CN(C)C(=O)C(C#N)=Cc1ccc(Nc2ncnc3[nH]ccc23)cc1` [compound 6, 3-(4-((7H-pyrrolo[2,3-d]pyrimidin-4-yl)amino)-phenyl)-2-cyano-N,N-dimethylacrylamide]: 580 nM.
For `CN(C)C(=O)C(C#N)=Cc1ccc(N(C)c2ncnc3[nH]ccc23)cc1` [compound 7, 2-cyano-N,N-dimethyl-3-(4-(methyl(7H-pyrrolo[2,3-d]pyrimidin-4-yl)amino)phenyl)acrylamide], the IC50 is above 1000 nM.
Next, `CN(C)C(=O)C(C#N)=Cc1cccc(Oc2ncnc3[nH]ccc23)c1` [compound 11, 3-(3-((7H-pyrrolo[2,3-d]pyrimidin-4-yl)oxy)phenyl)-2-cyano-N,N-dimethylacrylamide]: above 1000 nM; `CN(C)C(=O)C(C#N)=Cc1ccc(Oc2ncnc3[nH]ccc23)cc1` [compound 12, 3-(4-((7H-pyrrolo[2,3-d]pyrimidin-4-yl)oxy)phenyl)-2-cyano-N,N-dimethylacrylamide]: 280 nM; `COc1c(C=C(C#N)C(=O)N(C)C)cccc1Nc1ncnc2[nH]ccc12` [compound 15, 3-(3-((7H-pyrrolo[2,3-d]pyrimidin-4-yl)amino)-2-methoxyphenyl)-2-cyano-N,N-dimethylacrylamide]: 2200 nM.
Next, `Cc1c(C=C(C#N)C(=O)N(C)C)cccc1Nc1ncnc2[nH]ccc12` [compound 16, 3-(3-((7H-pyrrolo[2,3-d]pyrimidin-4-yl)amino)-2-methylphenyl)-2-cyano-N,N-dimethylacrylamide]: 1270 nM; `CN(C)C(=O)C(C#N)=Cc1cc(Nc2ncnc3[nH]ccc23)ccc1Cl` [compound 17, 3-(5-((7H-pyrrolo[2,3-d]pyrimidin-4-yl)amino)-2-chlorophenyl)-2-cyano-N,N-dimethylacrylamide]: 1770 nM; `Cc1ccc(Nc2ncnc3[nH]ccc23)cc1C=C(C#N)C(=O)N(C)C` [compound 19, 3-(5-((7H-pyrrolo[2,3-d]pyrimidin-4-yl)amino)-2-methylphenyl)-2-cyano-N,N-dimethylacrylamide]: above 5000 nM.
Consider `CN(C)C(=O)C(C#N)=Cc1cccc(-c2cnc3[nH]ccc3n2)c1` [compound 27, 3-(3-(5H-pyrrolo[2,3-b]pyrazin-2-yl)phenyl)-2-cyano-N,N-dimethylacrylamide], for which the IC50 was above 1000 nM.
For `CN(C)C(=O)C(C#N)=Cc1cccc(Nc2cnc3[nH]ccc3n2)c1` [compound 29, 3-(3-((5H-pyrrolo[2,3-b]pyrazin-2-yl)amino)phenyl)-2-cyano-N,N-dimethylacrylamide], the IC50 was above 1000 nM.
The figure for `CN(C)C(=O)C(C#N)=Cc1cccc(Oc2cnc3[nH]ccc3n2)c1` [compound 31, 3-(3-((5H-pyrrolo[2,3-b]pyrazin-2-yl)oxy)phenyl)-2-cyano-N,N-dimethylacrylamide] is above 1000 nM; for `CN(C)C(=O)C(C#N)=Cc1ccc(Oc2cnc3[nH]ccc3n2)cc1` [compound 32, 3-(4-((5H-pyrrolo[2,3-b]pyrazin-2-yl)oxy)phenyl)-2-cyano-N,N-dimethylacrylamide] it is 320 nM.
On to `CC(C)NC(=O)c1c[nH]c2ncc(-c3cccc(C=C(C#N)C(=O)N(C)C)c3)nc12` [compound 47, 2-(3-(2-cyano-3-(dimethylamino)-3-oxoprop-1-en-1-yl)phenyl)-N-isopropyl-5H-pyrrolo[2,3-b]pyrazine-7-carboxamide], for which the IC50 was 13 nM.
Next, `CC(C)NC(=O)c1c[nH]c2ncc(Nc3ccc(C=C(C#N)C(=O)N(C)C)cc3)nc12` [compound 50, 2-((4-(2-cyano-3-(dimethylamino)-3-oxoprop-1-en-1-yl)phenyl)amino)-N-isopropyl-5H-pyrrolo[2,3-b]pyrazine-7-carboxamide]: 0.2 nM; `CC(C)NC(=O)c1c[nH]c2ncc(Oc3cccc(C=C(C#N)C(=O)N(C)C)c3)nc12` [compound 51, 2-(3-(2-cyano-3-(dimethylamino)-3-oxoprop-1-en-1-yl)phenoxy)-N-isopropyl-5H-pyrrolo[2,3-b]pyrazine-7-carboxamide]: 1150 nM; `CN(C)C(=O)C(C#N)=Cc1ccc(Nc2cnc3[nH]cc(C(=O)C(C)(C)C)c3n2)cc1` [compound 57, 2-cyano-N,N-dimethyl-3-(4-((7-pivaloyl-5H-pyrrolo[2,3-b]pyrazin-2-yl)amino)phenyl)-acrylamide]: 1 nM.
Regarding `CC(C)(C)C(=O)c1c[nH]c2ncc(Nc3ccc(C=C(C#N)C(N)=O)cc3)nc12` [compound 60, 2-cyano-3-(4-((7-pivaloyl-5H-pyrrolo[2,3-b]-pyrazin-2-yl)amino)phenyl)acrylamide], the IC50 came to 0.4 nM.
The figure for `CC(C)(C)C(=O)c1c[nH]c2ncc(Nc3ccc(C=C(C#N)C(=O)N4CCC4)cc3)nc12` [compound 62, 2-(azetidine-1-carbonyl)-3-(4-((7-pivaloyl-5H-pyrrolo[2,3-b]pyrazin-2-yl)amino)phenyl)acrylonitrile] is 0.4 nM; for `CN1CCN(C(=O)C(C#N)=Cc2ccc(Nc3cnc4[nH]cc(C(=O)C(C)(C)C)c4n3)cc2)CC1` [compound 64, 2-(4-methylpiperazine-1-carbonyl)-3-(4-(7-pivaloyl-5H-pyrrolo[2,3-b]pyrazin-2-ylamino)phenyl)acrylonitrile] it is 0.2 nM.
Next, `CN(C)C(=O)C(C#N)=Cc1ccc(Nc2cnc3[nH]cc(C(=O)C(C)(C)C)c3n2)cc1F` [compound 66, 2-cyano-3-(2-fluoro-4-((7-pivaloyl-5H-pyrrolo[2,3-b]pyrazin-2-yl)amino)phenyl)-N,N-dimethylacrylamide]: 0.7 nM.
The figure for `CN(C)C(=O)C(C#N)=Cc1ccc(Nc2cnc3[nH]cc(C(=O)C(C)(C)C)c3n2)cc1Cl` [compound 68, 3-(2-chloro-4-(7-pivaloyl-5H-pyrrolo-[2,3-b]pyrazin-2-ylamino)phenyl)-2-cyano-N,N-dimethylacrylamide] is 1 nM; for `CN(C)C(=O)C(C#N)=Cc1ccc(Nc2cnc3[nH]cc(C(=O)C(C)(C)C)c3n2)c(F)c1` [compound 69, 2-cyano-3-(3-fluoro-4-((7-pivaloyl-5H-pyrrolo[2,3-b]pyrazin-2-yl)amino)phenyl)-N,N-dimethylacrylamide] it is 0.5 nM; for `CN(C)C(=O)C(C#N)=Cc1ccc(Nc2cnc3[nH]cc(C(=O)C(C)(C)C)c3n2)cn1` [compound 70, 2-cyano-N,N-dimethyl-3-(5-((7-pivaloyl-5H-pyrrolo[2,3-b]pyrazin-2-yl)amino)pyridin-2-yl)acrylamide] it is 0.9 nM.
